Consider 29 compounds from patent publication US20100168102A9, “Amide Derivatives as Kinase Inhibitors” (Devgen NV, priority 2005, published 2010).

The IC50 is the concentration needed to halve the response being measured.

One test concerns the target T1, PKC epsilon (Homo sapiens, UniProt Q02156).
T1 construct: purchased Invitrogen P2282
T1 sequence (Q02156 1-737): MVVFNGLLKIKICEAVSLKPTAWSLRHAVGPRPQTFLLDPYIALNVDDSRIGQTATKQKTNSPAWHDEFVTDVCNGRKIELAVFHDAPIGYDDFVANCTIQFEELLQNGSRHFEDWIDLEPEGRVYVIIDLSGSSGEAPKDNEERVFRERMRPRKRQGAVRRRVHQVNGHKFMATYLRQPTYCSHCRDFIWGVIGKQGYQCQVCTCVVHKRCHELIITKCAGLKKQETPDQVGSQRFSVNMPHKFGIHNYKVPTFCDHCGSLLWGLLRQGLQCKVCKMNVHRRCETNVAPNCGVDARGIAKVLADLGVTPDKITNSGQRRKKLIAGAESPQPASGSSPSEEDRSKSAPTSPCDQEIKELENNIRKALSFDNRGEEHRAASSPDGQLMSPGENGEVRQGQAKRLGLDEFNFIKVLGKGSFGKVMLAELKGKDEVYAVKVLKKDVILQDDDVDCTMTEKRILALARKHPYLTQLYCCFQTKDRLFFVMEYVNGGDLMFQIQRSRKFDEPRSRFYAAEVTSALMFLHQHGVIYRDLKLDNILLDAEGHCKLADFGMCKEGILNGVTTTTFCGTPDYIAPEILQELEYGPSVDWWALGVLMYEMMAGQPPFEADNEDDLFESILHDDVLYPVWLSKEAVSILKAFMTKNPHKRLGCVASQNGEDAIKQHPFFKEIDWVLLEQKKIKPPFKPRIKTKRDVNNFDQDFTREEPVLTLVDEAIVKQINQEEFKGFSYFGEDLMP
As to the kind of experiment: Biochemical assay for PKC epsilon (fluorescence polarization, Protein Kinase C Assay Kit, Red). Particulars: read-out: IC50 μM PKCε. In short, it runs like this:
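Read-out was fluorescence-polarization competition between phosphorylated substrate and a rhodamine PKC tracer for an anti-phosphoserine antibody, added with EDTA stop after an 80 min room-temperature kinase reaction with ATP and protein substrate (Mg2+/Ca2+ buffer). Enzyme (10 ng/ml final) was preincubated with compound for 30 min.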
A general note: Fluorescence polarisation rises when a labelled molecule tumbles more slowly, as on binding a larger partner.

The target in a further test is T2, human ROCKα/ROCKII mix (Homo sapiens, UniProt O75116).
T2 construct: purchased Upstate Biotechnology 14-451
The test is described as follows: Biochemical assay for ROCK (fluorescence polarization, ROCK IMAP Kit).

[1] abbreviates: Table 2, compounds of Formula XIII.
[2] abbreviates: compounds of Formula XIV, Table 3.

Where two headings read alike, the source gives them in different places.

T2 sequence (O75116 11-552 limits assumed): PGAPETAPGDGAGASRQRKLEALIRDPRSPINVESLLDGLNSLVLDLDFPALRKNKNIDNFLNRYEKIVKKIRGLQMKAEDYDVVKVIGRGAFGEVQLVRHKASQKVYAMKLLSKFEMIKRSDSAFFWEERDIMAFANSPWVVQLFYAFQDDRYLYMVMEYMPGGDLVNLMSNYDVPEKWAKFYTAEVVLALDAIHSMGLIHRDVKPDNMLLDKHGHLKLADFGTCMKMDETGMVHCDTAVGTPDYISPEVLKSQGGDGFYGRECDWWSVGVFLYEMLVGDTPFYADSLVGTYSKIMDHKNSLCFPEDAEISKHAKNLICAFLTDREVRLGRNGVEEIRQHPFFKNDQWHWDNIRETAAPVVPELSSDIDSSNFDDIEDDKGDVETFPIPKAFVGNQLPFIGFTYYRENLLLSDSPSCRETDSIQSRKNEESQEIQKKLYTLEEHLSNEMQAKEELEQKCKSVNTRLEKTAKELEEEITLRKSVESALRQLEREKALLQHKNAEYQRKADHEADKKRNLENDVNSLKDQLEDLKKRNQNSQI

Regarding `NC(CNC(=O)c1cc2cc(F)ccc2[nH]1)c1ccc(C(=O)Nc2ccncc2)cc1` (stereo not shown) [Compound 129, 5-Fluoro-1H-indole-2-carboxylic acid {2-amino-2-[4-(pyridin-4-ylcarbamoyl)-phenyl]-ethyl}-amide], the IC50 lay within 5 to 50 µM at PKC epsilon (setting [1]) and 0.5 to 5 µM on human ROCKα/ROCKII mix (setting [1]).

With `NC(CNC(=O)c1ccsc1)c1ccc(C(=O)Nc2ccncc2)cc1` (stereo not shown) [Compound 115, Thiophene-3-carboxylic acid {2-amino-2-[4-(pyridin-4-ylcarbamoyl)-phenyl]-ethyl}-amide], the IC50 at PKC epsilon (setting [1]) lay in the range of 0.5 to 5 µM; against human ROCKα/ROCKII mix (setting [1]) it was 0.05 to 0.5 µM.

Regarding `CC(C)(C)c1ccc(NC(=O)NCC(N)c2ccc(C(=O)Nc3ccncc3)cc2)cc1` (stereo not shown) [Compound 24, 4-{1-amino-2-[3-(4-tert-butyl-phenyl)-ureido]-ethyl}-N-pyridin-4-yl-benzamide], the IC50 fell in the range of 5 to 50 µM on PKC epsilon and 0.5 to 5 µM on human ROCKα/ROCKII mix.

For the compound `NC(CNC(=O)CCC1CCCC1)c1ccc(C(=O)Nc2ccncc2)cc1` (stereo not shown) [Compound 51, 4-[1-Amino-2-(3-cyclopentyl-propionylamino)-ethyl]-N-pyridin-4-yl-benzamide], the IC50 was 0.5 to 5 µM at PKC epsilon (setting [1]) and 0.05 to 0.5 µM against human ROCKα/ROCKII mix (setting [1]).

For `NC(c1ccc(C(=O)Nc2ccncc2)cc1)C1CCCN1C(=O)Cc1ccc(-c2ccccc2)cc1` (stereo not shown) [Compound 537, 4-{Amino-[1-(2-biphenyl-4-yl-acetyl)-pyrrolidin-2-yl]-methyl}-N-pyridin-4-yl-benzamide], the IC50 on PKC epsilon and against human ROCKα/ROCKII mix was 0.5 to 5 µM each time.

On to “4-{1-Amino-2-[methyl-(2- methyl-2-thiophen-2-yl- propionyl)- amino]-ethyl}- N-pyridin-4-yl-benzamide [Compound 447]”, for which the IC50 on PKC epsilon and against human ROCKα/ROCKII mix was 0.5 to 5 µM each time.

With `NC(CC(=O)NCc1ccc(OC(F)(F)F)cc1)c1ccc(C(=O)Nc2ccncc2)cc1` (stereo not shown) [Compound 271, 4-[1-Amino-2-(4-trifluoromethoxy-benzylcarbamoyl)-ethyl]-N-pyridin-4-yl-benzamide], the figures for the concentration for half-maximal inhibition (IC50) on PKC epsilon (setting [2]) and on human ROCKα/ROCKII mix (setting [2]) were 0.5 to 5 µM and 0.05 to 0.5 µM, respectively.

Take `NC(c1ccc(C(=O)Nc2ccncc2)cc1)C1CCCN1C(=O)Cc1ccc(F)cc1F` (stereo not shown) [Compound 580, 4-(Amino-{1-[2-(2,4-difluoro-phenyl)-acetyl]-pyrrolidin-2-yl}-methyl)-N-pyridin-4-yl-benzamide]: the results for the IC50 on PKC epsilon and on human ROCKα/ROCKII mix were 0.5 to 5 µM and 0.05 to 0.5 µM, respectively.

As to `NC(c1ccc(C(=O)Nc2ccncc2)cc1)C1CCCN1C(=O)C1(c2ccc(F)cc2)CCCC1` (stereo not shown) [Compound 576, 4-(Amino-{1-[1-(4-fluoro-phenyl)-cyclopentanecarbonyl]-pyrrolidin-2-yl}-methyl)-N-pyridin-4-yl-benzamide], the 50% inhibitory concentration (IC50) at PKC epsilon and at human ROCKα/ROCKII mix was 0.5 to 5 µM throughout.

As to `NC(c1ccc(C(=O)Nc2ccncc2)cc1)C1CCCN1C(=O)Cc1ccc(Br)cc1` (stereo not shown) [Compound 558, 4-(Amino-{1-[2-(4-bromo-phenyl)-acetyl]-pyrrolidin-2-yl}-methyl)-N-pyridin-4-yl-benzamide], the IC50 on PKC epsilon was in the range of 0.5 to 5 µM; against human ROCKα/ROCKII mix it was 0.05 to 0.5 µM.

As for `NC(CNC(=O)c1cccc(Cl)c1)c1ccc(C(=O)Nc2ccncc2)cc1` (stereo not shown) [Compound 89, 4-[1-amino-2-(3-chloro-benzoylamino)-ethyl]-N-pyridin-4-yl-benzamide], the IC50 at PKC epsilon (setting [1]) and against human ROCKα/ROCKII mix (setting [1]) was 0.5 to 5 µM throughout.

As to “4-{1-Amino-2-[(2-biphenyl-4- yl-acetyl)-methyl- amino]-ethyl}- N-pyridin-4-yl-benzamide [Compound 436]”, the IC50 at PKC epsilon was in the range of 5 to 50 µM; at human ROCKα/ROCKII mix, 0.5 to 5 µM.

Take `NC(c1ccc(C(=O)Nc2ccncc2)cc1)C1CCCN1C(=O)Cc1cc(F)cc(F)c1` (stereo not shown) [Compound 583, 4-(Amino-{1-[2-(3,5-difluoro-phenyl)-acetyl]-pyrrolidin-2-yl}-methyl)-N-pyridin-4-yl-benzamide]: the IC50 was in the range of 5 to 50 µM at PKC epsilon and 0.5 to 5 µM against human ROCKα/ROCKII mix.

As for `NC(CNC(=O)c1ccc(F)cc1)c1ccc(C(=O)Nc2ccncc2)cc1` (stereo not shown) [Compound 93, 4-[1-amino-2-(4-fluoro-benzoylamino)-ethyl]-N-pyridin-4-yl-benzamide], the IC50 on PKC epsilon (setting [1]) and on human ROCKα/ROCKII mix (setting [1]) was 0.5 to 5 µM each time.

Take `NC(c1ccc(C(=O)Nc2ccncc2)cc1)C1CCCN1C(=O)Cc1c(Cl)cccc1Cl` (stereo not shown) [Compound 590, 4-(Amino-{1-[2-(2,6-dichloro-phenyl)-acetyl]-pyrrolidin-2-yl}-methyl)-N-pyridin-4-yl-benzamide]: the results for the 50% inhibitory concentration (IC50) at PKC epsilon and on human ROCKα/ROCKII mix were 5 to 50 µM and 0.5 to 5 µM, respectively.

As for `CCCCNC(=O)NCC(N)c1ccc(C(=O)Nc2ccncc2)cc1` (stereo not shown) [Compound 2, 4-[1-amino-2-(3-butyl-ureido)-ethyl]-N-pyridin-4-yl-benzamide], the IC50 on PKC epsilon and against human ROCKα/ROCKII mix was 0.5 to 5 µM in each case.

For the compound `CC(CNC(=O)CC(N)c1ccc(C(=O)Nc2ccncc2)cc1)c1ccc(Cl)cc1` (stereo not shown) [Compound 301, 4-{1-Amino-2-[2-(4-chloro-phenyl)-propylcarbamoyl]-ethyl}-N-pyridin-4-yl-benzamide], the IC50 at PKC epsilon (setting [2]) and on human ROCKα/ROCKII mix (setting [2]) was 0.05 to 0.5 µM throughout.

`Cc1ccc(CNC(=O)CC(N)c2ccc(C(=O)Nc3ccncc3)cc2)cc1` (stereo not shown) [Compound 233, 4-[1-Amino-2-(4-methyl-benzylcarbamoyl)-ethyl]-N-pyridin-4-yl-benzamide]: the results for the IC50 on PKC epsilon (setting [2]) and against human ROCKα/ROCKII mix (setting [2]) were 0.5 to 5 µM and 0.05 to 0.5 µM, respectively.

In the case of `NC(c1ccc(C(=O)Nc2ccncc2)cc1)C1CCCN1C(=O)C1CCCc2ccccc21` (stereo not shown) [Compound 613, 4-{Amino-[1-(1,2,3,4-tetrahydro-naphthalene-1-carbonyl)-pyrrolidin-2-yl]-methyl}-N-pyridin-4-yl-benzamide], the IC50 at PKC epsilon and against human ROCKα/ROCKII mix was 0.5 to 5 µM each time.

As to `NC(CNC(=O)Nc1ccccc1F)c1ccc(C(=O)Nc2ccncc2)cc1` (stereo not shown) [Compound 20, 4-{1-amino-2-[3-(2-fluoro-phenyl)-ureido]-ethyl}-N-pyridin-4-yl-benzamide], the figures for the IC50 at PKC epsilon and on human ROCKα/ROCKII mix were 0.5 to 5 µM and 0.05 to 0.5 µM, respectively.

On to “4-{1-amino-2-[2-(4- trifluoromethyl-phenyl)- ethylcarbamoyl]-ethyl}-N- pyridin-4-yl-benzamide [Compound 309]”, for which the IC50 at PKC epsilon (setting [2]) lay in the range of 0.5 to 5 µM; against human ROCKα/ROCKII mix (setting [2]) it was 0.05 to 0.5 µM.

With `NC(c1ccc(C(=O)Nc2ccncc2)cc1)C1CCCN1C(=O)Cc1c(F)cccc1Cl` (stereo not shown) [Compound 597, 4-(Amino-{1-[2-(2-chloro-6-fluoro-phenyl)-acetyl]-pyrrolidin-2-yl}-methyl)-N-pyridin-4-yl-benzamide], the IC50 at PKC epsilon lay within 5 to 50 µM; against human ROCKα/ROCKII mix it was 0.5 to 5 µM.

Turning to `NC(CNC(=O)c1cccc(Cn2cccn2)c1)c1ccc(C(=O)Nc2ccncc2)cc1` (stereo not shown) [Compound 103, 4-{1-amino-2-[(3-pyrazol-1ylmethyl)-benzoylamino]-ethyl}-N-pyridin-4-yl-benzamide], the IC50 at PKC epsilon (setting [1]) and at human ROCKα/ROCKII mix (setting [1]) was 0.5 to 5 µM throughout.

Turning to “4-(1-Amino-2-{methyl-[2-(2- phenyl-thiazol-4-yl)-acetyl]- amino}-ethyl)- N-pyridin-4-yl-benzamide [Compound 445]”, the IC50 fell in the range of 5 to 50 µM on PKC epsilon and 0.5 to 5 µM on human ROCKα/ROCKII mix.

With `NC(CC(=O)NCc1cccc(C(F)(F)F)c1)c1ccc(C(=O)Nc2ccncc2)cc1` (stereo not shown) [Compound 264, 4-[1-Amino-2-(3-trifluoromethyl-benzylcarbamoyl)-ethyl]-N-pyridin-4-yl-benzamide], the IC50 at PKC epsilon (setting [2]) is 0.5 to 5 µM; against human ROCKα/ROCKII mix (setting [2]), 0.05 to 0.5 µM.

As to `NC(CNC(=O)c1ccoc1)c1ccc(C(=O)Nc2ccncc2)cc1` (stereo not shown) [Compound 119, Furan-3-carboxylic acid {2-amino-2-[4-(pyridin-4-ylcarbamoyl)-phenyl]-ethyl}-amide], the results for the 50% inhibitory concentration (IC50) at PKC epsilon (setting [1]) and against human ROCKα/ROCKII mix (setting [1]) were 0.5 to 5 µM and 0.05 to 0.5 µM, respectively.

On to `NC(CC(=O)NCc1cc(C(F)(F)F)cc(C(F)(F)F)c1)c1ccc(C(=O)Nc2ccncc2)cc1` (stereo not shown) [Compound 268, 4-[1-Amino-2-(3,5-bis-trifluoromethyl-benzylcarbamoyl)-ethyl]-N-pyridin-4-yl-benzamide], for which the IC50 fell in the range of 0.5 to 5 µM on PKC epsilon (setting [2]) and 0.05 to 0.5 µM against human ROCKα/ROCKII mix (setting [2]).

For `N[C@H](CC(=O)N[C@H]1COc2ccccc21)c1ccc(C(=O)Nc2ccncc2)cc1` [Compound 406, 4-{(R)-1-Amino-2-[(R)-(2,3-dihydro-benzofuran-3-yl)carbamoyl]-ethyl}-N-pyridin-4-yl-benzamide], the IC50 on PKC epsilon and on human ROCKα/ROCKII mix was 0.05 to 0.5 µM in each case.

For the compound `COc1ccc(CNC(=O)CC(N)c2ccc(C(=O)Nc3ccncc3)cc2)cc1` (stereo not shown) [Compound 239, 4-[1-Amino-2-(4-methoxy-benzylcarbamoyl)-ethyl]-N-pyridin-4-yl-benzamide], the IC50 was in the range of 0.5 to 5 µM on PKC epsilon (setting [2]) and 0.05 to 0.5 µM against human ROCKα/ROCKII mix (setting [2]).
